Measured values reported in PubChem BioAssay (NCI).
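Five compound concentrations were applied to cells in 96-well plates for 48 hours; endpoints were derived by simple linear interpolation of the resulting dose-response curve. TGI: total growth inhibition.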

Columns and labels:
Assay in all cases: NCI tumour cell line growth inhibition, 48 h
OVCAR-5 ovarian = system: OVCAR-5 ovarian
SNB-19 CNS = system: SNB-19 CNS
NCI-H226 lung = system: NCI-H226 lung
KM20L2 colon = system: KM20L2 colon
DMS 273 small cell lung = system: DMS 273 small cell lung
M14 melanoma = system: M14 melanoma
HCT-15 colon = system: HCT-15 colon
NCI-H522 lung = system: NCI-H522 lung
UO-31 renal = system: UO-31 renal
SN12C renal = system: SN12C renal
SK-OV-3 ovarian = system: SK-OV-3 ovarian
HT29 colon = system: HT29 colon
DLD-1 colon = system: DLD-1 colon
UACC-257 melanoma = system: UACC-257 melanoma
SNB-75 CNS = system: SNB-75 CNS
SNB-78 CNS = system: SNB-78 CNS
COLO 205 colon = system: COLO 205 colon
HOP-92 NSCLC = system: HOP-92 NSCLC
K-562 leukemia = system: K-562 leukemia
LOX IMVI melanoma = system: LOX IMVI melanoma
OVCAR-8 ovarian = system: OVCAR-8 ovarian
CCRF-CEM leukemia = system: CCRF-CEM leukemia
HCC-2998 colon = system: HCC-2998 colon
SW-620 colon = system: SW-620 colon
KM12 colon = system: KM12 colon
UACC-62 melanoma = system: UACC-62 melanoma
HL-60(TB) leukemia = system: HL-60(TB) leukemia
M19-MEL melanoma = system: M19-MEL melanoma
SF-268 CNS = system: SF-268 CNS
OVCAR-3 ovarian = system: OVCAR-3 ovarian
U251 CNS = system: U251 CNS
A498 renal = system: A498 renal
MALME-3M melanoma = system: MALME-3M melanoma
SR leukemia = system: SR leukemia
HCT-116 colon = system: HCT-116 colon
EKVX NSCLC = system: EKVX NSCLC
TK-10 renal = system: TK-10 renal
OVCAR-4 ovarian = system: OVCAR-4 ovarian
ACHN renal = system: ACHN renal
NCI-H23 lung = system: NCI-H23 lung
MOLT-4 leukemia = system: MOLT-4 leukemia
RPMI-8226 leukemia = system: RPMI-8226 leukemia
LXFL 529 NSCLC = system: LXFL 529 NSCLC
A549 NSCLC = system: A549 NSCLC
HOP-62 NSCLC = system: HOP-62 NSCLC
786-0 renal = system: 786-0 renal
IGROV1 ovarian = system: IGROV1 ovarian
CAKI-1 renal = system: CAKI-1 renal
NCI-H460 lung = system: NCI-H460 lung
RXF 393 renal = system: RXF 393 renal
MCF7 breast = system: MCF7 breast
SK-MEL-5 melanoma = system: SK-MEL-5 melanoma
NCI/ADR-RES ovarian = system: NCI/ADR-RES ovarian
SK-MEL-2 melanoma = system: SK-MEL-2 melanoma
SK-MEL-28 melanoma = system: SK-MEL-28 melanoma
BT-549 breast = system: BT-549 breast
SF-539 CNS = system: SF-539 CNS
HS 578T breast = system: HS 578T breast
MDA-MB-231 breast = system: MDA-MB-231 breast
PC-3 prostate = system: PC-3 prostate
T-47D breast = system: T-47D breast
MDA-MB-435 = system: MDA-MB-435
DU-145 prostate = system: DU-145 prostate
MDA-N = system: MDA-N

Work on `COC(=O)C(C(=O)C(=O)Nc1nc(=S)[nH][nH]1)c1csc(-n2nc(-c3ccccc3)cc2-c2ccccc2)n1` (stereo unspecified) yielded a TGI (OVCAR-5 ovarian) of over 100 µM, a TGI (SNB-19 CNS) of over 100 µM and a TGI (NCI-H226 lung) of over 100 µM. It also gave a TGI (KM20L2 colon) of over 100 µM, a TGI (DMS 273 small cell lung) of over 100 µM and a TGI (M14 melanoma) of over 100 µM. It also gave a TGI (HCT-15 colon) of over 100 µM, a TGI (NCI-H522 lung) of over 100 µM and a TGI (UO-31 renal) of over 100 µM. The TGI (SN12C renal) was over 100 µM, the TGI (SK-OV-3 ovarian) was over 100 µM and the TGI (HT29 colon) was over 100 µM. It also gave a TGI (DLD-1 colon) of over 100 µM, a TGI (UACC-257 melanoma) of over 100 µM and a TGI (SNB-75 CNS) of 78.5 µM. The TGI (SNB-78 CNS) was over 100 µM, the TGI (COLO 205 colon) was over 100 µM and the TGI (HOP-92 NSCLC) was over 100 µM. The TGI (K-562 leukemia) was over 100 µM, the TGI (LOX IMVI melanoma) was over 100 µM and the TGI (OVCAR-8 ovarian) was over 100 µM. The TGI (CCRF-CEM leukemia) was over 100 µM, the TGI (HCC-2998 colon) was over 100 µM and the TGI (SW-620 colon) was over 100 µM. It also gave a TGI (KM12 colon) of over 100 µM, a TGI (UACC-62 melanoma) of over 100 µM and a TGI (HL-60(TB) leukemia) of over 100 µM. For the same compound, the TGI (M19-MEL melanoma) was over 100 µM, the TGI (SF-268 CNS) was over 100 µM and the TGI (OVCAR-3 ovarian) was over 100 µM. The TGI (U251 CNS) was over 100 µM, the TGI (A498 renal) was over 100 µM and the TGI (MALME-3M melanoma) was over 100 µM. The TGI (SR leukemia) was over 100 µM, the TGI (HCT-116 colon) was over 100 µM and the TGI (EKVX NSCLC) was over 100 µM. It also gave a TGI (TK-10 renal) of over 100 µM, a TGI (OVCAR-4 ovarian) of over 100 µM and a TGI (ACHN renal) of over 100 µM. It also gave a TGI (NCI-H23 lung) of over 100 µM, a TGI (MOLT-4 leukemia) of over 100 µM and a TGI (RPMI-8226 leukemia) of over 100 µM. The TGI (LXFL 529 NSCLC) was over 100 µM, the TGI (A549 NSCLC) was over 100 µM and the TGI (HOP-62 NSCLC) was over 100 µM. It also gave a TGI (786-0 renal) of over 100 µM, a TGI (IGROV1 ovarian) of over 100 µM and a TGI (CAKI-1 renal) of over 100 µM. For the same compound, the TGI (NCI-H460 lung) was over 100 µM and the TGI (RXF 393 renal) was over 100 µM.

Compound `CC(=O)OC/C=C\Cn1nc(Br)c(=O)[nH]c1=O` has a TGI (OVCAR-5 ovarian) of 31.8 µM, a TGI (MCF7 breast) of 28.5 µM and a TGI (SNB-19 CNS) of 37.7 µM. It also gave a TGI (NCI-H226 lung) of 30.1 µM, a TGI (SK-MEL-5 melanoma) of 30.9 µM and a TGI (M14 melanoma) of 30.9 µM. It also gave a TGI (HCT-15 colon) of 27.2 µM, a TGI (NCI-H522 lung) of 16.7 µM and a TGI (NCI/ADR-RES ovarian) of 56 µM. It also gave a TGI (SK-MEL-2 melanoma) of 30.6 µM, a TGI (UO-31 renal) of 31.2 µM and a TGI (SN12C renal) of 55.2 µM. For the same compound, the TGI (SK-MEL-28 melanoma) was 32 µM, the TGI (UACC-257 melanoma) was 31.8 µM and the TGI (SNB-75 CNS) was 29.6 µM. For the same compound, the TGI (COLO 205 colon) was 29.6 µM, the TGI (HOP-92 NSCLC) was 27.9 µM and the TGI (K-562 leukemia) was 26.5 µM. For the same compound, the TGI (LOX IMVI melanoma) was 20.1 µM, the TGI (OVCAR-8 ovarian) was 34.7 µM and the TGI (BT-549 breast) was 22.2 µM. For the same compound, the TGI (SF-539 CNS) was 24.7 µM, the TGI (HS 578T breast) was 54 µM and the TGI (CCRF-CEM leukemia) was 24.5 µM. The TGI (HCC-2998 colon) was 31.7 µM, the TGI (SW-620 colon) was 32.3 µM and the TGI (KM12 colon) was 30.1 µM. For the same compound, the TGI (HL-60(TB) leukemia) was 17.6 µM, the TGI (SF-268 CNS) was 31.5 µM and the TGI (OVCAR-3 ovarian) was 22.5 µM. For the same compound, the TGI (U251 CNS) was 22.6 µM, the TGI (A498 renal) was 34.7 µM and the TGI (MDA-MB-231 breast) was 43.4 µM. For the same compound, the TGI (MALME-3M melanoma) was 31.1 µM, the TGI (SR leukemia) was 15.6 µM and the TGI (PC-3 prostate) was 26 µM. For the same compound, the TGI (EKVX NSCLC) was 34.5 µM, the TGI (T-47D breast) was 37.1 µM and the TGI (MDA-MB-435) was 29.4 µM. It also gave a TGI (DU-145 prostate) of 31.9 µM, a TGI (MDA-N) of 32 µM and a TGI (TK-10 renal) of 38.2 µM. For the same compound, the TGI (ACHN renal) was 23.4 µM, the TGI (NCI-H23 lung) was 32.5 µM and the TGI (RPMI-8226 leukemia) was 72.7 µM. For the same compound, the TGI (A549 NSCLC) was 32.3 µM, the TGI (HOP-62 NSCLC) was 45.1 µM and the TGI (IGROV1 ovarian) was 29.4 µM. For the same compound, the TGI (CAKI-1 renal) was 22.8 µM, the TGI (NCI-H460 lung) was 26.7 µM and the TGI (RXF 393 renal) was 27.1 µM.
